According to US11442059B2, “Method for treating a chronic itch condition by administering small molecule MrgprX4 antagonists” (The Johns Hopkins University, priority 2017, dated 2022):

How the values were obtained:
[1] = target: MRGPRX4-GFP (Homo sapiens, UniProt Q96LA9); assay: Receptor internalization assay, MRGPRX4-GFP HEK293 cells; type: cell-based; details: 37° C.
Protocol: To label the drug with red-fluorescent dye, […] of LTG was dissolved in 50 μl dimethyformamide (DMF) first, and further diluted with 450 μl reaction buffer (0.1M sodium bicarbonate buffer, pH9.0) to obtain LTG at a concentration of 7.8 mM. Then, 50 μl of Texas-red-conjugated sulfonyl chloride (Thermo Fisher Scientific, T1905) dissolved in DMF at 10 mg ml−1 was slowly added into LTG solution. The reaction was incubated at 4° C. for 1 hour with continuous stirring. The mixture was then diluted into cell culture medium for further use. LTG labeled with Texas Red dye can create bright red-fluorescence with excitation/emission maxima ˜595/615 nm. HEK293 cells stably expressing Mrgpra1-GFP, Mrgprc11-GFP or MRGPRX4-GFP fusion protein were grown in DMEM with 10% FBS. After 4-6 hours of serum starvation, cells were treated with either medium, dye alone, unlabeled LTG or Texas-Red-labeled LTG at 37° C. for 15 or 60 min. Cells were washed with PBS and fixed with 4% paraformaldehyde in PBS. The subcellular localization of Mrgpr-GFP or drug was visualized under a confocal fluorescence microscope with a 400× magnification (Zeiss LSM 700).

[2] = test system: human dendritic cells; assay: Calcium imaging of human dendritic cells; type: cell-based
Protocol: In initial experiments, HEK293 cells were plated on 100 μg/ml poly-D-lysine coated glass cover slips, and transiently transfected with vector containing Mrgprs gene, after 24-48 hours of culture, cells were loaded with Fura 2-acetomethoxy ester calcium indicator (0.5 μM, Molecular Probes) along with pluronic F-127 dispersing agent (0.1%, Molecular Probes) for 30 minutes in the dark at 37° C., then washed with calcium imaging buffer (CIB; NaCl 125 mM, KCl 3 mM, CaCl2 2.5 mM, MgCl2 0.6 mM, HEPES 10 mM, glucose 20 mM, NaHCO3 1.2 mM, sucrose 20 mM, brought to pH 7.4 with NaOH). Drugs were added to Fura 2-loaded cells and intracellular free calcium was measured using 340 nm and 380 nm excitation wavelengths with emission measured at 520 nm with a microscope based imaging system (Nikon Eclipse TE200). Changes in emission fluorescence ratios at 340/380 nm excitation were continuously monitored at 1 second intervals. Later, experiments were performed using Mrgpra1-GFP, Mrgprc11-GFP and MRGPRX4-GFP stable cell lines to confirm the findings obtained from the transiently expressing cells.
Human Peripheral Blood Dendritic Cells from four different donors were purchased from Lonza (cc-2701) and […] Technologies (70041). […]

[3] = test system: Mrgpra1 knockout mice; assay: Dendritic cell adoptive transfer into Mrgpra1 KO mice with daily LTG; type: in vivo, mouse; details: Mrgpra1 KO animals who received WT dendritic cells; 7-10 days of LTG 50 mg kg−1
Protocol: Spleens from naïve 129S1 WT mice or Mrgpra1−/− mice were aseptically removed and DCs were isolated using mouse Pan Dendritic Cell isolation kit (Miltenyi Biotec) according to the manufacturer's manual. Briefly, single cell suspensions from spleen were generated by collagenase D/DNase I digestion as above mentioned. Then, cocktail of biotin-conjugated antibodies against non-dendritic cells followed by anti-biotin magnetic microbeads were added to the cell suspensions. Dendritic cells were separated from bead labelled non-dendritic cells using LS column. Dendritic cells freshly isolated either from WT mice or KO animals suspended in 200 μl Hanks' Balanced Salt Solution (HBSS) were injected intravenously (tail vein) into the naïve male Mrgpra1 knockout mice (2×10^6 cells/mouse) one day before starting daily LTG (50 mg kg^−1 body weight) administration.

MRGPRX4-GFP, sequence (Q96LA9 whole entry, the tested form may be a part): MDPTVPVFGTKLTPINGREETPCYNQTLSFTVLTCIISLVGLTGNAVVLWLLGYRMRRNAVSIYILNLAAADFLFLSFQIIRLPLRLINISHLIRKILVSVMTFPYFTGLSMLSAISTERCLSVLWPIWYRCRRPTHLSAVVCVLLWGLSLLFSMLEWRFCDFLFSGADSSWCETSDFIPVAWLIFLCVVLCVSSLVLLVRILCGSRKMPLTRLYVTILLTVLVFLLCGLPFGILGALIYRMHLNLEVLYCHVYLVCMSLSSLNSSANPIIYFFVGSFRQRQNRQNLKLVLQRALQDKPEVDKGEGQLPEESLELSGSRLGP

`Nc1nnc(-c2cccc(Cl)c2Cl)c(N)n1` [LTG, Lamotrigine] was tested. Which “internalization of MRGPRX4-GFP” value [1] did it give?
Its value is “can induce the internalization”.

What about the “cells activated (Ca2+ imaging)” value [2] of the same compound?
The value was “about 5%”.

What about the “animals developing SJS-like eye manifestation” value [3] of the same compound?
The value was 64%.
